Key:
[1] = tested on: panel of 55 pharmacologically-relevant receptors, ion channels and transporters; test: In vitro ligand binding screen (ExpresSProfile; Cerep); settings: 5 μM
Experimental: Pafolacianine (5 μM) was evaluated in an in vitro ligand binding screen (ExpresSProfile; Cerep 100010238), which assessed the potential for pafolacianine “off-target” binding to a broad panel of 55 pharmacologically-relevant receptors, ion channels and transporters.

[2] = tested on: FR-positive KB cell tumor xenografts; test: Whole body imaging and tissue distribution, FR-positive KB tumor xenografts; format: in vivo, mice
Experimental: Whole body imaging and tissue distribution of pafolacianine and OTL0039 was performed in female nu/nu mice bearing FR-positive KB cell tumor xenografts. […] This observation was consistent with the lower binding affinity of the D-isomer for FR compared with the L-isomer. Tumor fluorescence was brighter in mice receiving pafolacianine compared with other folate-conjugated near infrared dyes such as LS288, IR800 and ZW800.
(§1) The optimal dose range for pafolacianine with respect to tumor-to-background ratio in FR-positive tumor-bearing mice was 1 to 30 nmol/mouse, with lower fluorescence intensity observed in tumors at a lower dose (0.3 nmol) and higher fluorescence intensity observed in other tissues at doses above 30 nmol. In a second experiment, pafolacianine whole body imaging and tissue distribution was examined again; however, this experiment was performed in female nu/nu mice bearing FR-negative A549 cell tumor xenografts.

[3] = tested on: FR-negative A549 cell tumor xenografts; test: Whole body imaging and tissue distribution, FR-negative A549 tumor xenografts; format: in vivo, mice
Experimental: as §1

[4] = Single IV dose toxicokinetics in dogs; format: in vivo; settings: for AUC(0-t) / C0: dog, in vivo
Experimental: Following a single IV administration of pafolacianine to male and female dogs, systemic exposure (C0, AUClast) to pafolacianine appeared similar between males and females at all dose levels (Table 3). Similar to rats, dog AUClast values were calculated from a range of concentration-time data with Tlast values varying from 5 minutes to 4 hours. In addition, there were limited dogs with reportable TK at 0.9 mg/kg (N=1-2). As a consequence, dose proportionality was not assessed for dogs. Terminal data were generally sparse (i.e., 2 or fewer measurable concentrations in the terminal phase, (FIG. 4). Similar to rat, parameters dependent on accurate determination of the terminal phase (AUCinf, T1/2, CL, Vz) were not reported.

[5] = Single IV dose toxicokinetics in rats; format: in vivo; settings: Study Day 0; for AUC(0-t) / C0: rat, in vivo
Experimental: Following a single IV administration of pafolacianine to male and female rats, systemic exposure (AUClast) to pafolacianine appeared similar between males and females at the 46.3 mg/kg dose levels (Table 2). There was a slight trend for higher AUClast values in females versus males at the two lower dose levels; however, due to sparse sampling of blood, the significance of this slight trend could not be evaluated. Values for AUClast were calculated, but the time associated with the last measurable concentration was variable (Tlast; 5 min to 24 hr), which confounded the ability to assess dose proportionality. Terminal data were generally sparse and/or the terminal phase was not sufficiently defined (FIG. 4). Thus, parameters dependent on accurate determination of the terminal phase (AUCinf, T1/2, CL, Vz) were not reported.

[6] = Pharmacokinetics in specific populations; format: in vivo; settings: age 18-89 years, weight 41.6-133.6 kg, mild to moderate renal or hepatic impairment
[7] = Plasma protein binding, equilibrium dialysis, rat plasma; format: in vitro ADME; settings: Sprague Dawley, read-out: mean (±SD) percentage of plasma protein bound (converted)
Experimental: (§2) The plasma protein binding of pafolacianine was studied in vitro in fresh human, Sprague Dawley rat, and Beagle dog plasma using equilibrium dialysis. Pafolacianine was introduced into plasma samples, in duplicate, resulting in a final concentration of 5 μM. The mean (±SD) percentage of plasma protein bound pafolacianine was 99.1±0.1%, 98.6±0.1%, and 93.7±1.5% for rat, dog and human, respectively. Pafolacianine was highly bound to plasma protein in all species examined.

[8] = Safety in three open label clinical studies; format: in vivo, human
Experimental: The safety of the disclosed compositions were evaluated in three open label clinical studies, two studies (N=150 and N=44) in patients with ovarian cancer and one study (N=100) in patients with cancer in the lung. A total of 294 patients received 0.025 mg/kg of the disclosed compositions via intravenous administration. The mean age of patients was 63.5 years; 51% were 65 years of age or older; 89% of patients were female; and 84% of patients were white.

FR = molecular target: T1, FR (Homo sapiens, UniProt P15328); test: [3H]-folic acid competition binding on KB cells
T1 construct: KB cells (a derivative of HeLa cells) that over-express FR; endogenous in cells; host or cells: KB cells (HeLa derivative)

[9] = Plasma protein binding, equilibrium dialysis, dog plasma; format: in vitro ADME; settings: Beagle, read-out: mean (±SD) percentage of plasma protein bound (converted)
Experimental: as §2

[10] = female dogs, 0.9 mg/kg single IV, Study Day 0, N = 1
[11] = female dogs, 9.3 mg/kg single IV, Study Day 0
[12] = female dogs, 13.9 mg/kg single IV, Study Day 0
[13] = male dogs, 0.9 mg/kg single IV, Study Day 0, N = 2
[14] = male dogs, 9.3 mg/kg single IV, Study Day 0
[15] = male dogs, 13.9 mg/kg single IV, Study Day 0
[16] = female rats, 3.1 mg/kg single IV
[17] = female rats, 30.8 mg/kg single IV
[18] = female rats, 46.3 mg/kg single IV
[19] = male rats, 30.8 mg/kg single IV
[20] = male rats, 46.3 mg/kg single IV

T1 sequence (P15328 25-234): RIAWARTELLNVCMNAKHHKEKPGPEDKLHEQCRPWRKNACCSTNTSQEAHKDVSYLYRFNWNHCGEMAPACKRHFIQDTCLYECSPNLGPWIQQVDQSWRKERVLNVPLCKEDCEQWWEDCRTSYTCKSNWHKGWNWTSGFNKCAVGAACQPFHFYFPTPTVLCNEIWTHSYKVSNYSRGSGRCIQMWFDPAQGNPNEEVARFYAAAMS

With `CC1(C)C(=CC=C2CCCC(C=CC3=[N+](CCCCS(=O)(=O)[O-])c4ccc(S(=O)(=O)O)cc4C3(C)C)=C2Oc2ccc(CC(NC(=O)c3ccc(NCc4cnc5nc(N)[nH]c(=O)c5n4)cc3)C(=O)O)cc2)N(CCCCS(=O)(=O)O)c2ccc(S(=O)(=O)O)cc21` (stereo not shown) [pafolacianine] the “affinity to off-target proteins” value [1] was “no significant affinity”, the “fluorescence in all other normal tissues” value ([2]; 2.5 hours after IV 10 nmol) was “little or no fluorescence signal” and the fluorescence in kidneys ([2]; 2.5 hours after IV 10 nmol) was “fluorescence signal also observed in the kidneys”. For the same compound, the fluorescence in tumors ([2]; 2.5 hours after IV 10 nmol) was “fluorescence primarily in the tumors”, the “tumor-to-normal tissue fluorescence ratios” value ([2]; 2.5 hours after IV 10 nmol) was “excellent” and the “tumor fluorescence compared with other folate-conjugated near infrared dyes (LS288, IR800, ZW800)” value ([2]; mouse, in vivo) was “brighter”. For the same compound, the “fluorescence in FR-negative tumors” value [3] was “no fluorescence observed”, the fluorescence in kidneys [3] was “fluorescence was primarily noted in kidneys” and the AUC(0-t) [4, 10] was 362 ng·h/mL. It also gave a C0 [4, 10] of 4.36 µg/mL, an AUC(0-t) [4, 11] of 17600 ng·h/mL and a C0 [4, 11] of 61.5 µg/mL. For the same compound, the AUC(0-t) [4, 12] was 44000 ng·h/mL, the C0 [4, 12] was 109 µg/mL and the AUC(0-t) [4, 13] was 397 ng·h/mL. It also gave a C0 [4, 13] of 3.79 µg/mL, an AUC(0-t) [4, 14] of 16800 ng·h/mL and a C0 [4, 14] of 58.5 µg/mL. For the same compound, the AUC(0-t) [4, 15] was 42100 ng·h/mL, the C0 [4, 15] was 107 µg/mL and the “DN AUClast” value [4, 10] was 0.402 (μg · h/mL)/(mg/kg). For the same compound, the “DN AUClast” value [4, 11] was 1.89 (μg · h/mL)/(mg/kg), the “DN AUClast” value [4, 12] was 3.17 (μg · h/mL)/(mg/kg) and the “DN AUClast” value [4, 13] was 0.442 (μg · h/mL)/(mg/kg). The “DN AUClast” value [4, 14] was 1.81 (μg · h/mL)/(mg/kg), the “DN AUClast” value [4, 15] was 3.03 (μg · h/mL)/(mg/kg) and the “DN AUClast” value [5, 16] was 0.816 (μg · h/mL)/(mg/kg). For the same compound, the “DN AUClast” value [5, 17] was 5.39 (μg · h/mL)/(mg/kg), the “DN AUClast” value [5, 18] was 5.51 (μg · h/mL)/(mg/kg) and the “DN AUClast” value ([5]; male rats, 3.1 mg/kg single IV) was 0.184 (μg · h/mL)/(mg/kg). The “DN AUClast” value [5, 19] was 3.86 (μg · h/mL)/(mg/kg), the “DN AUClast” value [5, 20] was 6.18 (μg · h/mL)/(mg/kg) and the AUC(0-t) [5, 16] was 2530 ng·h/mL. The C0 [5, 16] was 16.2 µg/mL, the AUC(0-t) [5, 17] was 166000 ng·h/mL and the C0 [5, 17] was 178 µg/mL. The AUC(0-t) [5, 18] was 255000 ng·h/mL, the C0 [5, 18] was 231 µg/mL and the AUC(0-t) ([5]; male rats, 3.1 mg/kg single IV) was 570 ng·h/mL. It also gave a C0 ([5]; male rats, 3.1 mg/kg single IV) of 6.87 µg/mL, an AUC(0-t) [5, 19] of 119000 ng·h/mL and a C0 [5, 19] of 65.7 µg/mL. For the same compound, the AUC(0-t) [5, 20] was 286000 ng·h/mL, the C0 [5, 20] was 174 µg/mL and the “differences in pharmacokinetics by age, weight, renal or hepatic impairment” value [6] was “No clinically significant differences”. The fraction unbound at 5 μM [7] was 0.009, the “Adverse reaction: abdominal pain” value ([8]; 294 patients, 0.025 mg/kg IV) was 2.7% and the “Adverse reaction: chest discomfort” value ([8]; 294 patients, 0.025 mg/kg IV) was 1%. The “Adverse reaction: dyspepsia” value ([8]; 294 patients, 0.025 mg/kg IV) was 1%, the “Adverse reaction: flushing” value ([8]; 294 patients, 0.025 mg/kg IV) was 1.7% and the “Adverse reaction: hypersensitivity” value ([8]; 294 patients, 0.025 mg/kg IV) was 1%. The “Adverse reaction: nausea” value ([8]; 294 patients, 0.025 mg/kg IV) was 15%, the “Adverse reaction: pruritus” value ([8]; 294 patients, 0.025 mg/kg IV) was 1% and the “Adverse reaction: vomiting” value ([8]; 294 patients, 0.025 mg/kg IV) was 5.8%. For the same compound, the “patients with adverse reactions during the administration” value ([8]; 294 patients, 0.025 mg/kg IV) was 2.4%, the “time of occurrence of reactions after start of infusion” value ([8]; typically) was at most 15 min and the “competition with [3H]-folic acid for the receptor” value (FR) was “competed well”. The fraction unbound at 5 μM [9] was 0.014.

From US11986540B2, “Compositions including pafolacianine for the identification of malignant lesions” (ON TARGET LABORATORIES, LLC., priority 2022, dated 2024)
